From patent US20120171133A1, “Modulation of Dynein in Skin” (AVON PRODUCTS, INC., priority 2010, published 2012)

Columns and labels:
[1] = tested on: mRNA for the heavy chain DYNC1H1 of cytoplasmic dynein; assay: Dynein modulation assay (Panomics Quantigene multiplex, branched DNA) in fibroblasts; type: cell-based, human; conditions: fibroblasts (F), 24 hours
Method: (§1) Normal human dermal fibroblasts or keratinocytes were cultured in 96-well tissue culture treated plates, containing appropriate culture medium. Stock solution of actives were made in an appropriate vehicle (water/Ethanol/Propylene glycol). Cells were treated with test material or respective vehicle control diluted in growth medium for 24 hours in a humidified 37° C. Incubator with 10% CO2. After incubation, growth medium from each plate was removed and 100 μL of lysis buffer was added to the wells and placed in 37° C. Incubator with 10% CO2 for 30 minutes. At the end of incubation, the cells are collected in freezer plates and placed in −80° C. freezer, until analysis. Changes in mRNA for Dynein after treatment were analyzed using Panomics Quantigene multiplex assay that employs a branched DNA technology, following manufacturer's instructions (Affymetrix, Calif.). Percent increase (up-regulation) or decrease (down-regulation) in mRNA for the heavy chain DYNC1H1 of cytoplasmic dynein was calculated by comparing the test results to the control. The percent up-regulation or down-regulation is converted to a scaled score as shown below in Table 3.

[2] = tested on: mRNA for the heavy chain DYNC1H1 of cytoplasmic dynein; assay: Dynein modulation assay (Panomics Quantigene multiplex, branched DNA) in keratinocytes; type: cell-based, human; conditions: for Effect (up-regulation scale) / Effect (down-regulation scale): keratinocytes (K), 24 hours
Method: as §1

## CCC=CCC=CCCO [3,6-Nonadienol]
[1]; Conc. 0.01%
  Effect (down-regulation scale): − (21-40)

## CC1=C(CC/C(C)=C/COC[C@@H](O)[C@@H](O)[C@H](O)[C@H](O)CO)C(C)(C)C(C)CC1 (stereo partly drawn) [Chalmicrin, 1-O—[(E)-3-Methyl-5-(2,5,6,6-tetramethyl-1-cyclohexen-1-yl)-2-pentenyl]-D-mannitol]
[2]; Conc. 0.0001%
  Effect (up-regulation scale): ++++ (>81)

## CC/C=C\CCCCCO [cis-6-Nonenol]
[2]; Conc. 0.0001%
  Effect (down-regulation scale): − (21-40)

## CCCCCCCC(=O)Nc1ccc(N2CCN(C(=O)CC(C)(C)C)CC2)cc1 [Compound 2]
[2]; Conc. 0.0005%
  Effect (up-regulation scale): ++ (41-60)

## CC(C)CN(Cc1ccc(OS(C)(=O)=O)cc1)S(=O)(=O)c1ccccc1 [Compound 1]
[1]; Conc. 0.00005%
  Effect (up-regulation scale): ++ (41-60)

## CCOCCCNC(=O)c1coc(CN(CCCOCC)C(=O)Nc2ccccc2C)n1 [Compound 4]
[1]; Conc. 0.00005%
  Effect (up-regulation scale): ++ (41-60)

## CCCCC(CC)C(=O)Nc1ccc(N2CCN(C(=O)C3CCCCC3)CC2)cc1 (stereo not shown) [Compound 7]
[2]; Conc. 0.00005%
  Effect (down-regulation scale): − (21-40)

## CCOCCCNC(=O)c1coc(CN(CCCOCC)C(=O)c2cccc(Br)c2)n1 [Compound 6]
[2]; Conc. 0.0005%
  Effect (down-regulation scale): − (21-40)

## CCOc1ccc(C(=O)CC(Sc2ccc(Cl)cc2)C(=O)O)cc1 (stereo not shown) [Compound 5]
[1]; Conc. 0.00001%
  Effect (up-regulation scale): ++ (41-60)

## CCCCc1ccc(C(=O)Nc2cccc(C3NC(=S)N(C)C(C)=C3C(=O)OCCOC)c2)cc1 (stereo not shown) [Compound 3]
[1]; Conc. 0.00005%
  Effect (up-regulation scale): ++ (41-60)

## CCc1ccccc1NC(=O)N(Cc1ccc(OS(C)(=O)=O)cc1)CC(C)C [Compound 8]
[1]; Conc. 0.0005%
  Effect (down-regulation scale): − (21-40)

## O=C(O)c1cc(Cl)ccc1O [5-Chlorosalicylic acid]
[2]; Conc. 0.1%
  Effect (down-regulation scale): −− (41-60)
[2]; keratinocytes, p=0.02
  reduction of mRNA for the heavy chain DYNC1H1 of cytoplasmic dynein: 45.03%
